Assay results from US10757937B2, “Sulfonamides that activate ABA receptors” (The Regents of the University of California, priority 2014, dated 2020).

The compounds below were run on Arabidopsis seed germination and hypocotyl growth (assay: Arabidopsis seed germination and hypocotyl growth). Details: Germination Inhibition II; tested at 10 and 50 uM; lowest concentration that inhibited hypocotyl growth in wells where seeds germinated; − = none.
Assay type: in vivo
Experimental: We germinated seeds from wild type on ½× strength Murashige and Skoog salts growth medium containing either 10 or 50 μM for all 62 compounds as well as 1 μM (+)-ABA and mock controls. […] To investigate if the any of the compounds are sufficient to control vegetative ABA responses, we treated three week old Arabidopsis plants with aqueous solutions containing 0.02% Silwet and either 50 μM of selected N-acylsulfonamides, 50 μM ABA or 0.1% DMSO (the carrier solvent for the compounds tested). The leaf temperatures were subsequently examined using a thermal imaging camera 24 hours after treatment. It is well known that ABA-induced guard cell closure reduces transpiration, which leads to increases in leaf temperatures. It has been estimated that a 1° C. increase in leaf temperature correlates with a decrease in transpiration rates by approximately 50% (Sirault et al., 2009). Since guard cell aperture is the primary determinant of transpiration rates, thermal imaging is a useful way to indirectly infer relative transpiration rates and, indirectly, relative degrees of guard cell opening at the whole plant level.
(§1) Additional compounds were tested for biological activity following the procedures of Example 1 with minor modifications.
For the germination inhibition experiment, the compounds were tested at 10 and 50 uM. The amounts shown are the lowest of the two concentrations that either inhibited germination or hypocotyl growth in wells where seeds germinated.
For the germination test, the compounds were tested at 1, 5, 10, 25 and 50 uM. The amounts shown are the lowest of the concentrations that either inhibited germination or hypocotyl growth in the wells where seeds germinated.

| SMILES | Hypocotyl Growth Inhibition [µM] |
| --- | --- |
| CC(C)(C(=O)NS(=O)(=O)Cc1ccc(C#N)cc1)c1ccc(Br)cc1 [Compound 2] | 10 |
| CC(C)(C(=O)NS(=O)(=O)Cc1ccc(C#N)cc1)c1cccc(Br)c1 [Compound 9] | 10 |
| CC(C)(C(=O)NS(=O)(=O)Cc1ccc(C#N)cc1)c1ccccc1F [Compound 8] | 10 |
| CC(C)(C(=O)NS(=O)(=O)Cc1ccc(C#N)cc1)c1cccc(F)c1 [Compound 16] | 10 |
| CCC(CC)(C(=O)NS(=O)(=O)Cc1ccc(C#N)cc1)c1ccc(Cl)cc1 [Compound 10] | 50 |
| N#Cc1ccc(CS(=O)(=O)NC(=O)C2(c3ccc(Cl)cc3)CCC2)cc1 [Compound 28] | 10 |

Same assay, conditions: Germination Inhibition II; tested at 10 and 50 uM; lowest of the two concentrations that inhibited; − = none

| SMILES | Germination Inhibition [µM] |
| --- | --- |
| CC(C)(C(=O)NS(=O)(=O)Cc1ccc(C#N)cc1)c1ccc(Br)cc1 [Compound 2] | 50 |
| CC(C)(C(=O)NS(=O)(=O)Cc1ccc(C#N)cc1)c1ccccc1F [Compound 8] | 50 |
| CC(C)(C(=O)NS(=O)(=O)Cc1ccc(C#N)cc1)c1cccc(F)c1 [Compound 16] | 50 |

Same assay, conditions: Table VIII; tested at 10 or 50 μM, ABA at 1 μM; lowest inhibiting concentration; − = none; read-out: Germination Inhibition

| SMILES | minimal effective concentration [µM] |
| --- | --- |
| CC(C)(C(=O)NS(=O)(=O)Cc1ccc(C#N)cc1)c1ccc(Br)cc1 [Compound 2] | 50 |
| CC(C)(C(=O)NS(=O)(=O)Cc1ccc(C#N)cc1)c1ccccc1F [Compound 8] | 50 |
| CC(C)(C(=O)NS(=O)(=O)Cc1ccc(C#N)cc1)c1cccc(F)c1 [Compound 16] | 50 |

Same assay, conditions: Table VIII; tested at 10 or 50 μM; lowest inhibiting concentration; − = none; read-out: Hypocotyl Growth Inhibition

| SMILES | minimal effective concentration [µM] |
| --- | --- |
| CC(C)(C(=O)NS(=O)(=O)Cc1ccc(C#N)cc1)c1ccc(Br)cc1 [Compound 2] | 10 |
| CC(C)(C(=O)NS(=O)(=O)Cc1ccc(C#N)cc1)c1cccc(Br)c1 [Compound 9] | 10 |
| CC(C)(C(=O)NS(=O)(=O)Cc1ccc(C#N)cc1)c1ccccc1F [Compound 8] | 10 |
| CC(C)(C(=O)NS(=O)(=O)Cc1ccc(C#N)cc1)c1cccc(F)c1 [Compound 16] | 10 |
| CCC(CC)(C(=O)NS(=O)(=O)Cc1ccc(C#N)cc1)c1ccc(Cl)cc1 [Compound 10] | 50 |
| N#Cc1ccc(CS(=O)(=O)NC(=O)C2(c3ccc(Cl)cc3)CCC2)cc1 [Compound 28] | 10 |

These compounds were tested against T1, PYL8 (Arabidopsis thaliana, UniProt Q9FGM1) (assay: receptor-mediated PP2C (HAB1) inhibition in vitro assay). Details: compound at 25 μM; control without agonist = 100%.
T1 construct: 6X-His; made in house; host or cells: E. coli BL21[DE3]pLysS
T1 sequence (Q9FGM1 1-188): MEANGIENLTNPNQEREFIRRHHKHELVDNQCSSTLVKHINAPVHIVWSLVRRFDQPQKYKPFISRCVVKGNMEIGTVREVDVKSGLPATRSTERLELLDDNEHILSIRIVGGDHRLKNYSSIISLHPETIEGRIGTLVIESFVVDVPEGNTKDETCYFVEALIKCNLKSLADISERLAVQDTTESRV
T1 sequence (Q9CAJ0 23-511 partner): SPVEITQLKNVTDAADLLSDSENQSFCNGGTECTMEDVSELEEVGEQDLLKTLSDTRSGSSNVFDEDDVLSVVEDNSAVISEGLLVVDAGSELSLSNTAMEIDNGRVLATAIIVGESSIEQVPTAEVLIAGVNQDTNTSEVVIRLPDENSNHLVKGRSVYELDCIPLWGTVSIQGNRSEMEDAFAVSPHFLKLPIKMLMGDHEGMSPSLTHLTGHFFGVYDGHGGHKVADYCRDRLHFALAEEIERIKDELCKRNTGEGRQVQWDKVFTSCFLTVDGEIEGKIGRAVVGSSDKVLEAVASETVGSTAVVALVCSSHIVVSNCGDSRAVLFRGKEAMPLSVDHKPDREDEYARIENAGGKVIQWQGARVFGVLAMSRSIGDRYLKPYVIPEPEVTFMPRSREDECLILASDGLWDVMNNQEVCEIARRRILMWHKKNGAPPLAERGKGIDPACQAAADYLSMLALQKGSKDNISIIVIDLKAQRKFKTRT
Assay type: biochemical
Experimental: (§2) A family of 62 structurally related N-acyl sulfonamides (Tables I-V) were tested for ABA agonist activity using multiple receptor-mediated PP2C inhibition in vitro assays (Park et al., 2009). […] The constructs utilized for protein expression have been previously described (Okamoto et al. 2013). For constructs encoding 6X-His-fusion proteins (all receptors except PYL11), the coding sequences were of the receptors were cloned in the vector pET28, expressed in BL21[DE3]pLysS E. coli host cells at 18° C. overnight, and subsequently purified from sonicated lysates using Ni-NTA agarose (Qiagen, USA), according to the manufacturer's instructions. PYL11 was constructed as a maltose binding protein fusion in the vector pMAL-c, expressed in BL21┌DE3┐pLysS host cells and purified using amylose resin (New England Biolabs) as described by the manufacturer. Recombinant GST-HAB1 was expressed and purified as described previously (Park et al., 2009). PP2C activity assays were conducted using the fluorogenic phosphatase substrate 4-methylumbelliferyl-phosphate. Recombinant receptors and HAB1 were used to examine ligand-induced PP2C inactivation in response to multiple test compounds. Enzyme inhibition assays were conducted using the following assay conditions: 50 nM GST-PP2C, 100 mM Tris-OAc (pH 7.9), 100 mM NaCl, 1 mM MnCl2, 1% β-mercaptoethanol. […] Because of this, the ratio of each receptor used in the PP2C-inhibitions assays was established empirically as the minimum fold-excess of receptor required to elicit maximal PP2C inhibition at a saturating ABA concentration (10 μM).
(§3) Based on this criterion, we used a ratio of 2:1 receptor in the assays described herein.
(§4) Using the above assay conditions, compounds were tested at 25 μM for agonist activity on PYL4, PYL5, PYL8 and PYL9. […] Consequently, a subset of the compounds was tested at multiple concentrations against 11 receptors so that IC50 values and receptor selectivity profiles could be examined. […] Thus, the N-acylsulfonamide agonists disclosed are selective for monomeric receptors.
as §1
(§5) For these in vitro receptor assays, the compounds listed were tested in in vitro PP2C inhibition assays with 50 uM of the test compound except for ABA (10 uM). IC50s were calculated from dose curves, but only for selected compounds.

| SMILES | PP2C Activity (25 μm) PYL8 [%] |
| --- | --- |
| CC(C)(C(=O)NS(=O)(=O)Cc1ccc(C#N)cc1)c1ccc(Br)cc1 [Compound 2] | 69 |
| CC(C)(C(=O)NS(=O)(=O)Cc1ccc(C#N)cc1)c1cccc(Br)c1 [Compound 9] | 58 |
| CC(C)(C(=O)NS(=O)(=O)Cc1ccc(C#N)cc1)c1ccccc1F [Compound 8] | 77 |
| CC(C)(C(=O)NS(=O)(=O)Cc1ccc(C#N)cc1)c1cccc(F)c1 [Compound 16] | 43 |
| CCC(CC)(C(=O)NS(=O)(=O)Cc1ccc(C#N)cc1)c1ccc(Cl)cc1 [Compound 10] | 83 |
| N#Cc1ccc(CS(=O)(=O)NC(=O)C2(c3ccc(Cl)cc3)CCC2)cc1 [Compound 28] | 55 |

Each compound was assayed against T2, PYL9 (Arabidopsis thaliana, UniProt Q84MC7) in the same assay as above. Details: compound at 25 μM; control without agonist = 100%.
T2 construct: 6X-His; made in house; host or cells: E. coli BL21[DE3]pLysS
T2 sequence (Q84MC7 1-187): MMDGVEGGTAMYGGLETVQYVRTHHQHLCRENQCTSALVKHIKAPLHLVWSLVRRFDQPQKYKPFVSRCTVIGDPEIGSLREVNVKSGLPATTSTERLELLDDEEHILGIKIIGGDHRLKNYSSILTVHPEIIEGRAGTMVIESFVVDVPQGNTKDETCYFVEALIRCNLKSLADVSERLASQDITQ
T2 sequence (Q9CAJ0 23-511 partner): T1 sequence (Q9CAJ0 23-511 partner)
Assay type: biochemical
Experimental: as §2, §3, §4, §1, §5

| SMILES | PP2C Activity (25 μm) PYL9 [%] |
| --- | --- |
| CC(C)(C(=O)NS(=O)(=O)Cc1ccc(C#N)cc1)c1ccc(Br)cc1 [Compound 2] | 47 |
| CC(C)(C(=O)NS(=O)(=O)Cc1ccc(C#N)cc1)c1cccc(Br)c1 [Compound 9] | 47 |
| CC(C)(C(=O)NS(=O)(=O)Cc1ccc(C#N)cc1)c1ccccc1F [Compound 8] | 69 |
| CC(C)(C(=O)NS(=O)(=O)Cc1ccc(C#N)cc1)c1cccc(F)c1 [Compound 16] | 30 |
| CCC(CC)(C(=O)NS(=O)(=O)Cc1ccc(C#N)cc1)c1ccc(Cl)cc1 [Compound 10] | 73 |
| N#Cc1ccc(CS(=O)(=O)NC(=O)C2(c3ccc(Cl)cc3)CCC2)cc1 [Compound 28] | 37 |

Each compound was assayed against T3, PYL5 (Arabidopsis thaliana, UniProt Q9FLB1) in the same assay as above. Details: compound at 25 μM; control without agonist = 100%.
T3 construct: 6X-His; made in house; host or cells: E. coli BL21[DE3]pLysS
T3 sequence (Q9FLB1 1-203): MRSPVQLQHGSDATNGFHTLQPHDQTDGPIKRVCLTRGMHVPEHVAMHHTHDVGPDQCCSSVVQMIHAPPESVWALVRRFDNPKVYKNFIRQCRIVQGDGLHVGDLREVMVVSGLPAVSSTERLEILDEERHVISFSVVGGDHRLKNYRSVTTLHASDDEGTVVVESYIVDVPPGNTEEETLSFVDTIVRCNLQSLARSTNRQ
T3 sequence (Q9CAJ0 23-511 partner): T1 sequence (Q9CAJ0 23-511 partner)
Assay type: biochemical
Experimental: as §2, §3, §4, §1, §5

| SMILES | PP2C Activity (25 μm) PYL5 [%] |
| --- | --- |
| CC(C)(C(=O)NS(=O)(=O)Cc1ccc(C#N)cc1)c1ccc(Br)cc1 [Compound 2] | 23 |
| CC(C)(C(=O)NS(=O)(=O)Cc1ccc(C#N)cc1)c1cccc(Br)c1 [Compound 9] | 43 |
| CC(C)(C(=O)NS(=O)(=O)Cc1ccc(C#N)cc1)c1ccccc1F [Compound 8] | 41 |
| CC(C)(C(=O)NS(=O)(=O)Cc1ccc(C#N)cc1)c1cccc(F)c1 [Compound 16] | 47 |
| CCC(CC)(C(=O)NS(=O)(=O)Cc1ccc(C#N)cc1)c1ccc(Cl)cc1 [Compound 10] | 75 |
| N#Cc1ccc(CS(=O)(=O)NC(=O)C2(c3ccc(Cl)cc3)CCC2)cc1 [Compound 28] | 65 |

Each compound was assayed against T4, PYL4 (Arabidopsis thaliana, UniProt O80920) in the same assay as above. Details: compound at 25 μM; control without agonist = 100%.
T4 construct: 6X-His; made in house; host or cells: E. coli BL21[DE3]pLysS
T4 sequence (O80920 1-207): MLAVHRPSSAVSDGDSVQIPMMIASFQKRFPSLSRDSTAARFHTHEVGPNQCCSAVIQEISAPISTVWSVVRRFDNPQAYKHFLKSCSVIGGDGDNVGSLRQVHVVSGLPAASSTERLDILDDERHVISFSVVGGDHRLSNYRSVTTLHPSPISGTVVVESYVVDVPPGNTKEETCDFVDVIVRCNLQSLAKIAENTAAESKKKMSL
T4 sequence (Q9CAJ0 23-511 partner): T1 sequence (Q9CAJ0 23-511 partner)
Assay type: biochemical
Experimental: as §2, §3, §4, §1, §5

| SMILES | PP2C Activity (25 μm) PYL4 [%] |
| --- | --- |
| CC(C)(C(=O)NS(=O)(=O)Cc1ccc(C#N)cc1)c1ccc(Br)cc1 [Compound 2] | 89 |
| CC(C)(C(=O)NS(=O)(=O)Cc1ccc(C#N)cc1)c1cccc(Br)c1 [Compound 9] | 91 |
| CC(C)(C(=O)NS(=O)(=O)Cc1ccc(C#N)cc1)c1ccccc1F [Compound 8] | 91 |
| CC(C)(C(=O)NS(=O)(=O)Cc1ccc(C#N)cc1)c1cccc(F)c1 [Compound 16] | 93 |
| CCC(CC)(C(=O)NS(=O)(=O)Cc1ccc(C#N)cc1)c1ccc(Cl)cc1 [Compound 10] | 93 |
| N#Cc1ccc(CS(=O)(=O)NC(=O)C2(c3ccc(Cl)cc3)CCC2)cc1 [Compound 28] | 96 |
